Six compounds from ChEMBL document CHEMBL1144705, “Erythrina alkaloids and a pterocarpan from the bark of Erythrina subumbrans” (J Nat Prod, 2008) can be followed below.

Structures are written as SMILES. In brackets after ≈: the same amount, converted by molar mass. Activity calls are given as the source filed them. No cut-off for these calls is given here.

The test system of one assay is Plasmodium falciparum. Description: Antimalarial activity against multidrug-resistant Plasmodium falciparum K1 by microculture radioisotope assay. Format: functional, organism-based.
Assay [1] deals with Mycobacterium tuberculosis. Description: Antimycobacterial activity against Mycobacterium tuberculosis H37Ra by Alamar blue assay. Format: functional. A general note: Resazurin is reduced to fluorescent resorufin, in cell work by metabolically active cells.
The next assay has as its system NCI-H187. As to the kind of experiment: Cytotoxicity against human NCI-H187 cells. Format: functional, cell-based.
The subject of a further assay is BC. As to the kind of experiment: (§1) Cytotoxicity against human BC cells. It is filed as functional, cell-based.
The next assay relates to KB. As to the kind of experiment: Cytotoxicity against human KB cells. It is filed as functional, cell-based.
Assay [2] in a line: as §1. Format: functional, cell-based.

Turning to `CC(C)=CCc1cc([C@@H]2CC(=O)c3c(O)cc(O)cc3O2)cc(CC=C(C)C)c1O` [ABYSSINONE V], the IC50 in the assay with Plasmodium falciparum was found to be 7 µg/mL (≈ 17.1 µM). This compound also displayed an MIC in assay [1] of 100 µg/mL (≈ 245 µM).

For `CO[C@@H]1C[C@@]23C(=C[C@H]1O)CCN2C(=O)C(=O)c1cc2c(cc13)OCO2`, the outcome (with Plasmodium falciparum; in the assay with NCI-H187; with BC; in assay [1]; in the assay with KB) was inactive.

`COc1c(CC=C(C)C)c(O)cc2c1[C@@H]1Oc3c(ccc(O)c3CC=C(C)C)[C@@H]1CO2`: the IC50 (in the assay on NCI-H187; in assay [2]; in the assay on KB) was 7.6 µg/mL (≈ 18 µM) in each case. This compound had an MIC in assay [1] of 50 µg/mL (≈ 118 µM).

Take `CC(C)=CCc1cc([C@@H]2CC(=O)c3c(O)cc(O)c(CC=C(C)C)c3O2)ccc1O` [LESPEDEZAFLAVANONE B]: the IC50 in the assay with Plasmodium falciparum stood at 3.7 µg/mL (≈ 9.06 µM); in the assay on NCI-H187 it was 7.6 µg/mL (≈ 18.6 µM); in assay [2], 7.6 µg/mL (≈ 18.6 µM); in the assay on KB it was 7.6 µg/mL (≈ 18.6 µM). Besides, the MIC in assay [1] stood at 100 µg/mL (≈ 245 µM).

Regarding `COc1cc2c(cc1OC)[C@]13C[C@@H](OC)[C@H](O)C=C1CCN3C(=O)C2=O`, the outcome (with Plasmodium falciparum; with NCI-H187; in the assay with BC; in assay [1]; with KB) was inactive.

`COc1ccc2c(c1)OC[C@@]1(O)c3ccc4c(c3O[C@@H]21)C[C@H](O)C(C)(C)O4` [ERYVARIN A] registered an MIC in assay [1] of 100 µg/mL (≈ 270 µM).

One may read the IC50 as the concentration at which inhibition is half-maximal. Higher therefore signals a need for much substance. One may read the MIC as the lowest concentration that inhibits growth of the organism. A low value points to greater potency.
